Publication PMC6271530, “Design and Optimisation of Bioactive Cyclic Peptides: Generation of a Down-Regulator of TNF Secretion” (Molecules, 2014)
Entries after “also recorded” stand apart in the source; their conditions may differ.

Key:
[1] = system: CTB-stimulated J774A.1 cells; assay type: cell-based, murine
[2] = system: LPS-stimulated J774A.1 cells; experiment: TNF secretion by LPS-stimulated J774A.1 cells; assay type: cell-based, murine; settings: for Change in level of secretion of TNF into the supernatant: LPS-stimulated J774A.1 cells, overnight exposure to cyclic peptide, TNF by sandwich ELISA, very high levels of TNF generated
[3] = system: cells of the cytokine secretion experiments (replicates of each group); experiment: MTT viability assay; assay type: cell-based; settings: MTT 4 h at 37 °C, read at 620 nm
Procedure: After removal of the supernatants 100 μL of RPMI 1640 is added to each well of the plate. 10 μL of MTT dye (stock 5 mg/mL) is added to each well and incubated for 4 h at 37 °C 5% CO2, the MTT crystals are dissolved with SDS after which the plates are read at 620 nm.

lymphocytes = experiment: TNF secretion by lymphocytes; assay type: cell-based; settings: evidence to be presented separately
[4] = system: cytokine activated T-cells (Tck) co-cultured with monocytes; experiment: IL-1 levels in the cognate model; assay type: cell-based, human
Procedure: (§1) A methodology described by Brennan et al. was employed. Peripheral blood lymphocytes (>95%) are enriched by Centrifugal Elutriation from plateletphoresis blood cones. CD45RO^+ Tcells (>98% purity) isolated by negative selection (Miltenyi, Bisley, UK) are re-suspended to a density of 1 × 10^6 cells/mL in RPMI 1640 containing 10% heat-inactivated AB^+ Human Serum. Cytokines are added to the cells at the following concentrations, hIL-2 @25 ng/mL, hIL-6 @100 ng/mL and hTNFα @25 ng/mL, all purchased from Peprotech UK (London, UK). The cells are incubated at 37 °C, 5% CO2 for 8 d after which they are pelleted twice at 1500 rpm for 5 min, counted and then used in a cognate experiment.
(§2) A methodology described by Brennan et al. is employed as follows. Elutriation-enriched (>95%) autologous monocytes are cultured at 1 × 10^6 cells/mL (100 microlitres) in RPMI 1640 containing 5% heat-inactivated FCS, in a 96-well, round-bottomed culture plate. After adjusting the cell number, cytokine activated T-cells (Tck) are added to the monocytes at a 5:1 ratio, the peptides are then added into the appropriate wells, with a final volume of 200 μL/well. Cells are co-cultured at 37 °C, 5% CO2 for 18 h after which the supernatants are removed and assayed for cytokine production by ELISA.

[5] = system: cytokine activated T-cells (Tck) co-cultured with monocytes; experiment: TNF secretion in T cell/monocyte co-culture (cognate assay); assay type: cell-based, human
Procedure: as §1, §2

[6] = system: cytokine activated T-cells (Tck) co-cultured with monocytes; experiment: IL-10 levels in the cognate model; assay type: cell-based, human
Procedure: as §1, §2

[7] = system: cytokine activated T-cells (Tck) co-cultured with monocytes; experiment: IL-6 secretion in the cognate assay; assay type: cell-based, human; settings: cognate model; 10 and 1 μg/mL peptide, relative to corresponding vehicle controls; formulated with cyclodextrin in the absence of transcutol
Procedure: as §1, §2

[8] = system: LPS-stimulated J774A.1 cells; experiment: IL-6 secretion by LPS-stimulated J774A.1 cells; assay type: cell-based, murine; settings: different concentrations, formulated with cyclodextrin in the absence of transcutol
[9] = Light scattering / homogeneity of the peptide preparation in aqueous medium; assay type: physicochemical; settings: peptide dissolved in HFIP or transcutol in the presence of β-hydroxypropyl cyclodextrin, then aqueous medium; all levels of cyclodextrin employed
Description: In order to avoid problems with aggregation, which, it was feared, may affect the long-term stability of the product, a number of methodologies were employed to disperse the peptide prior to introduction into aqueous medium. Dissolution in HFIP, followed by drying down and addition of water worked reasonably well, as did dissolving in transcutol at high concentration, then adding to water. […] Detailed methodology is given in the Experimental section.

cyclo(-DF-R-Σ-S-DF-R-Σ-S-) [Lex 2.1]
Change in level of secretion of TNF into the supernatant [1]: efficacy in terms of down-regulating the secretion of TNF

cyclo(DF-R-LC10-S-DF-R-LC10-S) [Lex 2.5]
Change in level of secretion of TNF into the supernatant [2]: strongly dose-related stimulatory activity

cyclo(-DF-S-Nle-R-DF-S-Nle-R-) [Lex 2.4]
Change in level of secretion of TNF into the supernatant [1]: insufficient

cyclo(DF-S-LC10-R-DF-S-LC10-R) [Lex 2.6]
Cell metabolic activity (MTT test) [3]: no reduction in cell metabolic activity | Effect on TNF secretion by lymphocytes (lymphocytes): no effect on secretion by lymphocytes | Effect on levels of IL-1 [4]: No effect | Change in level of secretion of TNF into the supernatant [1]: inhibits secretion of TNF | Effect on TNF secretion of cells in the cognate assay ([5]; 10 µg/mL, formulated with cyclodextrin in the presence of transcutol (panel a), 18 h co-culture, ELISA): inhibitory activity is seen clearly | Inhibition of TNF secretion elicited by modified T-cell phenotype ([5]; summary statement): inhibits secretion of TNF | Dependence of TNF down-regulating activity on cyclodextrin:peptide ratio ([2]; LPS-stimulated J774A.1 cells overnight, formulated with beta hydroxypropyl cyclodextrin at different weight ratios, down to 1.25 (molar ratio 1.3)): independent of the ratio of peptide to cyclodextrin | Change in level of secretion of TNF into the supernatant [2]: most efficacious structure tested; also recorded: inhibits secretion of TNF | Effect on levels of IL-10 [6]: No effect | Effect on IL-6 secretion [7]: reductions in IL-6 secretion | Effect on IL-6 secretion [8]: Clear dose-related inhibition of IL-6 secretion | Light scattering of the preparation (homogeneity) [9]: significant reduction in light scattering

cyclo(-DF-S-Σ-R-DF-S-Σ-R-) [Lex 2.2]
Change in level of secretion of TNF into the supernatant [1]: efficacy in terms of down-regulating the secretion of TNF; also recorded: more efficacious

cyclo(-DF-R-Nle-S-DF-R-Nle-S-) [Lex 2.3]
Change in level of secretion of TNF into the supernatant [1]: insufficient
